According to patent US9617311B2, “Use of PEDF-derived polypeptides for promoting stem cells proliferation and wound healing” (Mackay Memorial Hospital, priority 2011, dated 2017):

Legend:
[1] = test system: limbal epithelial stem cells (LSCs); experiment: In vitro LSC proliferation, BrdU pulse-labeling with ΔNp63α immunostaining; format: cell-based, New Zealand white rabbits; details: BrdU 2 hours; for percentage of BrdU and ΔNp63α-double positive cells per total ΔNp63α-positive cells: 25 nM peptide or 4.5 nM PEDF in medium, control medium 3.0±0.5%, mean±SEM
Description: LSCs were isolated from six-month-old New Zealand white rabbits and used for cell-suspension culture in accordance with the method previously described by Cheng et al. (The growth-promoting effect of KGF on limbal epithelial cells is mediated by upregulation of DeltaNp63alpha through the p38 pathway. J Cell Sci 2009; 122 (Pt 24): 4473-4480) and Wang et al. (Importin 13 serves as a potential marker for corneal epithelial progenitor cells. Stem Cells 2009; 27: 2516-2526) with a slight modification. Rabbit limbal tissues were washed in PBS containing 100 U/ml penicillin and 50 μg/ml gentamicin. After carefully removing the iris, and excessive sclera, the limbal rings were exposed to dispase II (1.2 IU/ml in Hanks' balanced salt solution free of Mg^2+ and Ca^2+) at 4° C. for 16 hours. The loosened epithelial sheets were removed with a cell scraper and separated into single cells by enzymatic digestion (0.05% trypsin, and 0.01% EDTA) for 15 min at 37° C. with gentle shaking and transferred to a stop medium (9 ml of HEPES-buffered DMEM containing 10% FBS). Cells were then collected by centrifugation (400×g for 5 min).
About 1×10^5 cells were seeded on each wells of a 6-well plate and incubated in a DMEM/Ham's F-12 basal medium (10 mM HEPES, 5 ng/ml human EGF, 1% SITE liquid medium, antibiotic-antimicotic solutions, 0.5% DMSO and 0.5 μg/ml hydrocortisone) supplemented with 10% FBS for 2 days, and then shifted to a basal medium or basal medium containing 4.5 nM PEDF, 25 nM 39-mer, 25 nM 34-mer, 25 nM 29-mer, 25 nM 25-mer, 25 nM 20-mer, 25 nM 18-mer, 25 nM Mo 29-mer or 25-nM Mo 20-mer. The cells were continued cultivated at 37° C. under 5% CO2 for another 3 days until they reached confluence (passage 0). LSCs were co-cultured with MMC-treated NIH-3T3 fibroblast feeder cells located within trans-well (0.4 μm pore, BD Biosciences, Bedford, Mass.). For passage purpose, near-confluent cells were harvested again by enzymatic treatment (i.e., 0.25% trypsin), and then 1×10^5 subcultured cells were further cultured in the respective medium, and proliferative capacity of cells was compared every 4 days after continuously culture-subculture (passage).
De-paraffinized tissue sections or 4% paraformaldehyde-fixed LSCs were blocked with 10% goat serum and 5% BSA in PBST (PBS containing 0.1% Tween-20) for 1 hour. Staining was done using primary antibodies against ΔNp63α (1:150 dilution), BrdU (1:250 dilution), and keratin-3 (1:250 dilution) at 37° C. for 2 hours, followed by incubation with the appropriate rhodamine- or FITC-conjugated donkey IgG (1:500 dilution) for 1 hour at RT. Nuclei were identified by counterstaining with Hoechst 33258 for 7 minutes. Images were captured using a Zeiss epifluorescence microscope with a CCD camera and photographs were taken by using the Axiovert software.
2×10^5 limbal cells (the 1st passage) were seeded at a slide coated with FNC COATING MIX® solution (Athena Enzyme Systems, Baltimore, Md.) and incubated with a culture medium for one day. BrdU (final, 10 μM) was added to the culture for 2 hours. After being fixed with 4% paraformaldehyde, cells were exposed to cold methanol for 2 minutes, and then treated with 1 N HCl at RT for 1 hour before performing immunofluorescence. For animal study, BrdU was reconstituted in DMSO as stock (80 mM). 10 μl of BrdU mixed with 90 μl of PBS was intraperitoneally injected into mouse 3 hours prior to euthanasia. DNA synthesis was assessed by BrdU labeling with anti-BrdU antibodies.

corneal wound = experiment: Corneal wound healing in mice, fluorescein staining; format: in vivo, C57BL/6 mice; details: for corneal re-epithelialization after 48 hours: 20 μl eye ointment with 50 μM peptide once a day, 2 mm wound; for residual epithelial defect, percentage of the original wound: 50 μM peptide eye ointment once a day
Protocol: The experiments were performed using eight-week-old female C57BL/6 mice, and the procedures were approved by the Mackay Memorial Hospital Review Board for animal investigation. Animals were anesthetized by an intraperitoneal injection of a mixture of zoletil (6 mg/kg) and xylazine (3 mg/kg). One filter paper (0.9 mm diameter) soaked with 20% ethanol was placed on the central cornea of right eye for one minute and then irrigated extensively with PBS. Subsequently, mechanical epithelial scrape was performed using a punch under a dissection microscope to create a circular injury (2 mm diameter) at the entire corneal region of the mouse eye without encroaching the corneal stroma, limbus or conjunctiva.
Each synthetic peptide (the 39-mer, 34-mer, 29-mer, 25-mer, 20-mer, 18-mer, Mo 29-mer or Mo 20-mer) was reconstituted in DMSO as stock (5 mM) and mixed with TOBREX® eye ointment (Alcon; containing 0.3% Tobramycin and 0.5% Chlorobutanol) to a concentration 50 μM. In each of the treatment group (n=6-10), the right eye was treated with 20 μl eye ointment containing the synthetic peptide once a day after the scrape injury. In the control group (n=20), right eye was treated with 20 μl of eye ointment mixed with vehicle DMSO. Wound size was determined by staining with topical fluorescein (Fluor-I-Strip, Ayerst Laboratories, Philadelphia, Pa.) and photographed with a digital camera. The area of defect was quantified from the photographs using a computer-assisted image analyzer (Adobe Photoshop CS3 10.0) and was calculated as the percentage of residual epithelial defect at each time point/initial wound area.
To investigate the effect of PEDF-derived short peptides on corneal wound healing in mice, corneal wound was created by a circular punch (2 mm diameter), then control eye-ointment or eye-ointment containing the short synthetic PEDF peptide(s) of this invention was applied to the wounded eye, and wound healing was subsequently evaluated by fluorescein staining. No significant differences in the size of the initial abrasion were noted between synthetic PEDF peptide-treated and control mice.

With “SLGAEQRTESIIHRALYYDL [20-mer, synthetic peptide identical to residues 11-30 of the 39-mer]” the “percentage of BrdU and ΔNp63α-double positive cells per total ΔNp63α-positive cells” value (“percentage … per total ΔNp63α-positive cells” below) [1] was 31.8±1.7%, the “corneal re-epithelialization after 48 hours” value (from here on “corneal re-epithelialization”) (corneal wound) was “complete corneal re-epithelialization” and the “residual epithelial defect, percentage of the original wound” value (shortened to “residual epithelial defect, percentage”) (corneal wound; 24 hours, control 84.9±5.1%) was 42.2±4.3%. For the same sequence, the “residual epithelial defect, percentage” value (corneal wound; 48 hours, control 39.5±3.1%) was 5.0±3.7%.
In the case of EQRTESIIHRALYYDLIS [18-mer], the “enhanced LSC proliferation versus control medium” value ([1]; 25 nM peptide in medium) is reported as “enhanced proliferation was not observed” and the “corneal re-epithelialization” value (corneal wound) is reported as “incompletely healed wounds”.
“SLGAEQRTESIIHRALYYDLISSPDIHGT [29-mer, short synthetic PEDF peptide derived from the 39-mer]” was tested, and the “percentage … per total ΔNp63α-positive cells” value [1] was 33.9±2.6%, the “corneal re-epithelialization” value (corneal wound) was “complete corneal re-epithelialization” and the “residual epithelial defect, percentage” value (corneal wound; 24 hours, control 84.9±5.1%) was 36.5±6.4%. For the same sequence, the “residual epithelial defect, percentage” value (corneal wound; 48 hours, control 39.5±3.1%) was 3.7±2.9%.
With “SLGAEHRTESVIHRALYYDLITNPDIHST [Mo 29-mer, synthetic peptide derived from mouse PEDF]” the “percentage … per total ΔNp63α-positive cells” value [1] was 27.1±1.8%, the “corneal re-epithelialization” value (corneal wound) was “complete corneal re-epithelialization” and the “residual epithelial defect, percentage” value (corneal wound; 24 hours, control 84.9±5.1%) was 33.8±5.2%. The “residual epithelial defect, percentage” value (corneal wound; 48 hours, control 39.5±3.1%) was 4.6±2.3%.
“SLGAEHRTESVIHRALYYDL [Mo 20-mer, synthetic peptide derived from mouse PEDF]” was tested, and the “percentage … per total ΔNp63α-positive cells” value [1] was 26.3±2.2%, the “corneal re-epithelialization” value (corneal wound) was “complete corneal re-epithelialization” and the “residual epithelial defect, percentage” value (corneal wound; 24 hours, control 84.9±5.1%) was 43.9±7.6%. The “residual epithelial defect, percentage” value (corneal wound; 48 hours, control 39.5±3.1%) was 6.2±3.5%.
